Laboratory results taken from US8486964B2, “Fused pyrrolidino-cyclopropane derivatives as selective 11-beta-hydroxysteroid dehydrogenase type 1 inhibitors” (Merck Patent GmbH, priority 2009, dated 2013).

Experiments:
Type in all cases: biochemical
human 11-β-HSD-1 = human 11-β-HSD-1 (Homo sapiens (Human), UniProt P28845); assay: Inhibition of 11-β-HSD-1 enzyme assay (HTRF cortisol), human recombinant enzyme; details: human recombinant enzyme expressed in E. coli; cortisone/NADPH 200 nM/200 μM; 150 minutes at 37° C.
Chain of human 11-β-HSD-1 (P28845 whole entry): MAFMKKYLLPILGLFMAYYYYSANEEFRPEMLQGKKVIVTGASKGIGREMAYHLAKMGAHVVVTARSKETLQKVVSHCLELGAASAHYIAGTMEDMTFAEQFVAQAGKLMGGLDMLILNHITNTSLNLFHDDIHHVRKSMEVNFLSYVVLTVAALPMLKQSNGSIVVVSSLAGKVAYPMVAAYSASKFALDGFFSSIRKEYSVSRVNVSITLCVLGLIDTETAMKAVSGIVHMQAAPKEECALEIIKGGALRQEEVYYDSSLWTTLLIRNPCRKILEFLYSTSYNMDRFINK
Procedure: (§1) Human recombinant 11-beta-hydroxysteroid dehydrogenase type 1 (11-β-HSD-1) enzyme was expressed in E. coli. Rat and mice liver microsome fractions were purchased from TEBU.
(§2) The 11-β-HSD-1 enzyme assay was carried out in 96 well microtiter plates in a total volume of 100 μl containing 30 mM Hepes buffer, pH 7.4 with 1 mM EDTA, substrate mixture cortisone/NADPH (200 nM/200 μM), G-6-P (1 mM) and inhibitors in serial dilutions. Reactions were initiated by addition of 10 μl 11-β-HSD-1 (3 μg) from E. coli, either as microsome fractions from rat and mice liver (2.5 μg). Following mixing, the plates were shaken for 150 minutes at 37° C. The reactions were terminated with 10 μl Acid-18beta glycyrrhetinic stop solution. Determinations of cortisol levels in 11-β-HSD-1 preparations were monitored by HTRF (HTRF cortisol assay from Cis bio international).

mouse 11-β-HSD-1 = mouse 11-β-HSD-1 (Mus musculus (Mouse), UniProt P50172); assay: Inhibition of 11-β-HSD-1 enzyme assay (HTRF cortisol), mice liver microsome fractions; details: cortisone/NADPH 200 nM/200 μM, 150 minutes at 37° C.
Chain of mouse 11-β-HSD-1 (P50172 whole entry): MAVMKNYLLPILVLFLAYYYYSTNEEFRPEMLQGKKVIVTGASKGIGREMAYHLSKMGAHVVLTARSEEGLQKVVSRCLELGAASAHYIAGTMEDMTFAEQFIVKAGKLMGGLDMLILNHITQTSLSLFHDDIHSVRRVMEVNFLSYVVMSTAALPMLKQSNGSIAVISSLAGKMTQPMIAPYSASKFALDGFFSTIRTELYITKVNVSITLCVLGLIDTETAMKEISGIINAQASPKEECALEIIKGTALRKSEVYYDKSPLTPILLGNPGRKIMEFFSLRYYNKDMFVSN
Procedure: as §1, §2

rat 11-β-HSD-1 = rat 11-β-HSD-1 (Rattus norvegicus (Rat), UniProt P16232); assay: Inhibition of 11-β-HSD-1 enzyme assay (HTRF cortisol), rat liver microsome fractions; details: cortisone/NADPH 200 nM/200 μM, 150 minutes at 37° C.
Chain of rat 11-β-HSD-1 (P16232 whole entry): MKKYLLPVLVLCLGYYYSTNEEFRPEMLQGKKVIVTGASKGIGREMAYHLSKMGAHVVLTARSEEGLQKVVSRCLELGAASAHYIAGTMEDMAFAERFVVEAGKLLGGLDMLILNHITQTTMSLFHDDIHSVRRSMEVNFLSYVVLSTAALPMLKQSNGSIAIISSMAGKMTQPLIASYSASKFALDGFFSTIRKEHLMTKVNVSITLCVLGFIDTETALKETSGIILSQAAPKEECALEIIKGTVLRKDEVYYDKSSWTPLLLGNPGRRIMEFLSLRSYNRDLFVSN
Procedure: as §1, §2

SMILES: O=C(N1CCC2(c3c[nH]c4ncccc34)CC12)C1(c2ccc(Cl)cc2)CC1 (stereo not drawn) [Compound 2, 3-(2-{[1-(4-chlorophenyl)cyclopropyl]carbonyl}-2-azabicyclo[3.1.0]hex-5-yl)-1H-pyrrolo[2,3-b]pyridine]
- IC50 (human 11-β-HSD-1): 0.022 µM
- IC50 (mouse 11-β-HSD-1): 1.54 µM
- IC50 (rat 11-β-HSD-1): 1.29 µM
